pIC50: −log10 of the molar value. The source made the active and inactive calls. The calls are words filed in the database; no cut-off is given here.
What was measured:
[1] = test system: A549; assay: In vivo antitumor activity against human A549 cells xenografted in female BALB/c nu/nu mouse assessed as tumor volume at 2.5 mg/kg, iv administered every 3 days and measured on 18 day relative to control; type: functional; conditions: time 3 day
[2] = test system: A549; assay: In vivo antitumor activity against human A549 cells xenografted in female BALB/c nu/nu mouse assessed as Ac-Histone H3 at 5 mg/kg, iv administered every 3 days for 18 days by Western blotting analysis; conditions: time 3.0 day
[3] = test system: HeLa; assay: Anticancer activity against human HeLa cells assessed as cell viability incubated for 72 hrs using self assembled nanoparticle as source of compound by CCK-8 assay; type: functional, cell-based
[4] = test system: A549; assay: Induction of apoptosis in human A549 cells assessed as early apoptotic cells at 2 uM incubated for 24 hrs by Annexin V-FITC/PI staining based flow cytometric analysis (reference value: 1.53%); type: functional
[5] = molecular target: Signal transducer and activator of transcription 1-alpha/beta (Homo sapiens, UniProt P42224); assay: Binding affinity to STAT1 (unknown origin) assessed as dissociation constant by SPR assay
[6] = molecular target: Signal transducer and activator of transcription 5A (Homo sapiens, UniProt P42229); assay: Binding affinity to STAT5A (unknown origin) assessed as dissociation constant by SPR assay
[7] = test system: HeLa; assay: cells; type: functional, cell-based; conditions: Homo sapiens, 72 h
Description: Antiproliferative activity against human Hela cells assessed as inhibition of cell proliferation incubated for 72 hrs by CCK-8 assay

[8] = molecular target: Signal transducer and activator of transcription 6 (Homo sapiens, UniProt P42226); assay: Binding affinity to STAT6 (unknown origin) assessed as dissociation constant by SPR assay
[9] = molecular target: Signal transducer and activator of transcription 5B (Homo sapiens, UniProt P51692); assay: Binding affinity to STAT5B (unknown origin) assessed as dissociation constant by SPR assay
[10] = Biodistribution in liver of nude mouse xenografted with A549 cells at 5 mg/kg, iv using chlorine e6 loaded self-assembled nanoparticle as source of compound incubated for 24 hrs by ex-vivo fluorescence based LC-MS/MS analysis; type: ADME, organism-based
[11] = test system: A549; assay: Induction of apoptosis in human A549 cells assessed as necrotic cells at 4 uM incubated for 24 hrs by Annexin V-FITC/PI staining based flow cytometric analysis (reference value: 1.20%); type: functional
[12] = molecular target: Signal transducer and activator of transcription 4 (Homo sapiens, UniProt Q14765); assay: Binding affinity to STAT4 (unknown origin) assessed as dissociation constant by SPR assay
[13] = molecular target: Signal transducer and activator of transcription 3 (Homo sapiens, UniProt P40763); assay: Inhibition of STAT3 (unknown origin) in human A549 cells incubated for 4 hrs by Cellular thermal shift assay; type: cell-based
[14] = Biodistribution in lung of nude mouse xenografted with A549 cells at 5 mg/kg, iv using chlorine e6 loaded self-assembled nanoparticle as source of compound incubated for 24 hrs by ex-vivo fluorescence based LC-MS/MS analysis; type: ADME, organism-based
[15] = molecular target: Histone deacetylase 3 (Homo sapiens, UniProt O15379); assay: Inhibition of recombinant human HDAC3 using Boc-Lys (acetyl)-AMC as substrate preincubated with compound for 1 hr followed by substrate addition and measured after 30 mins by microplate reader assay
[16] = Toxicity in female BALB/c nu/nu mouse xenografted with human A549 cells assessed as effect on heart at 2.5 mg/kg, iv by H and E staining based analysis; type: organism-based; conditions: in vivo
[17] = molecular target: Histone deacetylase 4 (Homo sapiens, UniProt P56524); assay: Inhibition of recombinant human HDAC4 using Boc-Lys (trifluroacetyl)-AMC as substrate preincubated with compound for 1 hr followed by substrate addition and measured after 30 mins by microplate reader assay
[18] = test system: A549; assay: cells; type: functional, cell-based; conditions: Homo sapiens, A549, 72 h
Description: Antiproliferative activity against human A549 cells assessed as inhibition of cell proliferation incubated for 72 hrs by CCK-8 assay

[19] = test system: A549; assay: Induction of apoptosis in human A549 cells assessed as necrotic cells at 2 uM incubated for 24 hrs by Annexin V-FITC/PI staining based flow cytometric analysis (reference value: 1.20%); type: functional
[20] = test system: A549; assay: Induction of autophagy in human A549 cells transfected with mRFP-GFP-LC3 assessed as increase in LC3-II:LC3-I protein level at 0.5 uM by Western blot analysis; type: functional, cell-based; conditions: time 0-72 hrs, TDE = time-dependent effect
[21] = molecular target: Class 1 histone deacetylase (Homo sapiens) (UniProt Q13547+O15379+Q92769+Q9BY41); assay: Inhibition of class 1 HDAC in human A549 cells assessed as increase in […] at 0.5 uM incubated for 12 hrs by Western blot analysis; type: cell-based
[22] = molecular target: Histone deacetylase 1 (Homo sapiens, UniProt Q13547); assay: Inhibition of recombinant human HDAC1 using Boc-Lys (acetyl)-AMC as substrate preincubated with compound for 1 hr followed by substrate addition and measured after 30 mins by microplate reader assay
[23] = test system: A549; assay: Induction of autophagy in human A549 cells transfected with mRFP-GFP-LC3 assessed as increase in red puncta at 0.5 uM incubated for 24 hrs by confocal microscopic analysis; type: functional, cell-based
[24] = molecular target: Polyamine deacetylase HDAC10 (Homo sapiens, UniProt Q969S8); assay: Inhibition of recombinant human HDAC10 using Boc-Lys (trifluroacetyl)-AMC as substrate preincubated with compound for 1 hr followed by substrate addition and measured after 30 mins by microplate reader assay
[25] = Toxicity in female BALB/c nu/nu mouse xenografted with human A549 cells assessed as effect on kidney at 2.5 mg/kg, iv by H and E staining based analysis; type: organism-based; conditions: in vivo
[26] = molecular target: Histone deacetylase 7 (Homo sapiens, UniProt Q8WUI4); assay: Inhibition of recombinant human HDAC7 using Boc-Lys (trifluroacetyl)-AMC as substrate preincubated with compound for 1 hr followed by substrate addition and measured after 30 mins by microplate reader assay
[27] = test system: A549; assay: Induction of apoptosis in human A549 cells assessed as decrease in BCL-2 protein level at 6 uM incubated for 12 hrs by Western blot analysis
[28] = test system: A549; assay: Effect on Bcl-2 protein level in human A549 cells at 4 uM incubated for 12 hrs by Western blot analysis; type: functional, cell-based
[29] = Toxicity in female BALB/c nu/nu mouse xenografted with human A549 cells assessed as effect on body weight at 5 mg/kg, iv using self assembled nanoparticle as source of compound and measured regularly; type: organism-based; conditions: in vivo
[30] = molecular target: Histone deacetylase 9 (Homo sapiens, UniProt Q9UKV0); assay: Inhibition of recombinant human HDAC9 using Boc-Lys (trifluroacetyl)-AMC as substrate preincubated with compound for 1 hr followed by substrate addition and measured after 30 mins by microplate reader assay
[31] = test system: A549; assay: Induction of autophagy in human A549 cells transfected with mRFP-GFP-LC3 assessed as increase in yellow puncta at 0.5 uM incubated for 24 hrs by confocal microscopic analysis; type: functional, cell-based
[32] = molecular target: Protein deacetylase HDAC6 (Homo sapiens) (UniProt Q9UBN7); assay: Inhibition of HDAC6 in human A549 cells assessed as increase in […] level at 0.5 uM incubated for 12 hrs by Western blot analysis; type: cell-based
Sequence of Protein deacetylase HDAC6 (Homo sapiens) (Q9UBN7 whole entry): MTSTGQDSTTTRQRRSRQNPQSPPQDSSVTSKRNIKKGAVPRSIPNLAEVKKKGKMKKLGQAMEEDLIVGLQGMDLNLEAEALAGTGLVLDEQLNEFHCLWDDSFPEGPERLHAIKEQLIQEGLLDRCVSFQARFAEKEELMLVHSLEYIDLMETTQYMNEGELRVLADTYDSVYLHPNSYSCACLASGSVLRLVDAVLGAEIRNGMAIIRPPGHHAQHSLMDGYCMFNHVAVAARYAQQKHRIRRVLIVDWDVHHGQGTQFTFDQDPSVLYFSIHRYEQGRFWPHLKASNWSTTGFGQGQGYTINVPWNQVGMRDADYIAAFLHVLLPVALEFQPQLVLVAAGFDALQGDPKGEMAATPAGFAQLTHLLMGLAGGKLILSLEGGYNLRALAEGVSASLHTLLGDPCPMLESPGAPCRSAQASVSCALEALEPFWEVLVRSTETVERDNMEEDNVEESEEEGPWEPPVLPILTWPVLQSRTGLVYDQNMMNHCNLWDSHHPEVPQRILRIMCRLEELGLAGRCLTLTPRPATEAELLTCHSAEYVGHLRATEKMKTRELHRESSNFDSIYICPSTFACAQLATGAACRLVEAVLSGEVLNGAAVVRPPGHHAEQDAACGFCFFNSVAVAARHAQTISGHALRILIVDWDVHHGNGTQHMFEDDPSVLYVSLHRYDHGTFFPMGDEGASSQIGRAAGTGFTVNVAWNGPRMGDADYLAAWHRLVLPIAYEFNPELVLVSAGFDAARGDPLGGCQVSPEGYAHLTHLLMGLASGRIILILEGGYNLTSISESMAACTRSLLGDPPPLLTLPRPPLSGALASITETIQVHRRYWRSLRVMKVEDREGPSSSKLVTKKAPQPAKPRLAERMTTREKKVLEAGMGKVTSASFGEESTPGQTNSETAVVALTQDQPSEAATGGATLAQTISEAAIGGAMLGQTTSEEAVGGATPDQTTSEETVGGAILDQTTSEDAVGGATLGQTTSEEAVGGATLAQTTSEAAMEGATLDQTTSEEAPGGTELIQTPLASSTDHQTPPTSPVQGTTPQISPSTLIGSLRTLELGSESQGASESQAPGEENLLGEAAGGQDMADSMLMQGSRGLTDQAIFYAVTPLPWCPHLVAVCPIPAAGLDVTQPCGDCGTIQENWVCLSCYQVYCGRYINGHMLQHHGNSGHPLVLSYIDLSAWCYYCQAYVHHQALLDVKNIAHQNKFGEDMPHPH

Sequence of Signal transducer and activator of transcription 4 (Q14765 whole entry): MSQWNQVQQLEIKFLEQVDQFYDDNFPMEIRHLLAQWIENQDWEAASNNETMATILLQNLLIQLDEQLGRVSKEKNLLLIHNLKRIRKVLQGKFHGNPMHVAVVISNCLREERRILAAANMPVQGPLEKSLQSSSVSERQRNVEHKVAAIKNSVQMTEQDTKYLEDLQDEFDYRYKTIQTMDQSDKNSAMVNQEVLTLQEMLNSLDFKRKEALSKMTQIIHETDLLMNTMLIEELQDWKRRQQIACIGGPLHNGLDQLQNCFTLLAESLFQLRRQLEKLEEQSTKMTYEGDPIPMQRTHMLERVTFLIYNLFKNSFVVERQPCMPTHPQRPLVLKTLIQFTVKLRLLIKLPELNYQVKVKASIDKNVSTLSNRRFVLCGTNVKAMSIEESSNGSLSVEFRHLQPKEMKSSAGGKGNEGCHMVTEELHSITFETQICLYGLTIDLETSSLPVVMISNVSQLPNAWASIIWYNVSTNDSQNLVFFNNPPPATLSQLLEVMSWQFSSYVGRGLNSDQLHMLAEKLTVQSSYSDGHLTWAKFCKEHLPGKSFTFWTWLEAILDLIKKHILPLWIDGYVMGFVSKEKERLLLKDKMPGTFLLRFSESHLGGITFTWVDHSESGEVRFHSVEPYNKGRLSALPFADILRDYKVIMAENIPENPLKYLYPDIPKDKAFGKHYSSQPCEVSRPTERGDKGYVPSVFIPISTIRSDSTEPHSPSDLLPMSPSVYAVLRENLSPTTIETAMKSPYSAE
Sequence of Signal transducer and activator of transcription 6 (P42226 whole entry): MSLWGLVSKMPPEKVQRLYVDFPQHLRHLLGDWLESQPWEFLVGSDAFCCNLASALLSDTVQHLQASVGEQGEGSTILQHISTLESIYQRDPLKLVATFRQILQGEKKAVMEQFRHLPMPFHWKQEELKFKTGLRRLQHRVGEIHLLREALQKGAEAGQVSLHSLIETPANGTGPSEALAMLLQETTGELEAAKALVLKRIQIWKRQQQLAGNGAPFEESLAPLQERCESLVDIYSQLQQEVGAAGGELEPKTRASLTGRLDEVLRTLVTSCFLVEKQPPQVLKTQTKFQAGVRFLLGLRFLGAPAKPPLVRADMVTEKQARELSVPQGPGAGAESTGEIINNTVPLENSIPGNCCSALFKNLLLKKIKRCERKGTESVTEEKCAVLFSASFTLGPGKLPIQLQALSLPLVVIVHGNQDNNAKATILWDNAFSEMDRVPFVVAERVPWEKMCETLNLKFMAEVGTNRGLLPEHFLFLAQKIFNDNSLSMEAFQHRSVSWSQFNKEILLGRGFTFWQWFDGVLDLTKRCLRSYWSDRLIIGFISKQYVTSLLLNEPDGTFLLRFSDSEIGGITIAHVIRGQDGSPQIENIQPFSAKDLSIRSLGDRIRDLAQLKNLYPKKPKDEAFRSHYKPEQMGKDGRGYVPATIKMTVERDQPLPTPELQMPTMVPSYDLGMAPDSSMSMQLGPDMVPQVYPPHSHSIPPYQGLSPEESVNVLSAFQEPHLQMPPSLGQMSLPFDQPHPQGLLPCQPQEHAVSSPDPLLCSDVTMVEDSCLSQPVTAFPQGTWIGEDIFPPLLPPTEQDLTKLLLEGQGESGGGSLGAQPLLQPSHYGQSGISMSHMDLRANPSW
Sequence of Histone deacetylase 3 (O15379 whole entry): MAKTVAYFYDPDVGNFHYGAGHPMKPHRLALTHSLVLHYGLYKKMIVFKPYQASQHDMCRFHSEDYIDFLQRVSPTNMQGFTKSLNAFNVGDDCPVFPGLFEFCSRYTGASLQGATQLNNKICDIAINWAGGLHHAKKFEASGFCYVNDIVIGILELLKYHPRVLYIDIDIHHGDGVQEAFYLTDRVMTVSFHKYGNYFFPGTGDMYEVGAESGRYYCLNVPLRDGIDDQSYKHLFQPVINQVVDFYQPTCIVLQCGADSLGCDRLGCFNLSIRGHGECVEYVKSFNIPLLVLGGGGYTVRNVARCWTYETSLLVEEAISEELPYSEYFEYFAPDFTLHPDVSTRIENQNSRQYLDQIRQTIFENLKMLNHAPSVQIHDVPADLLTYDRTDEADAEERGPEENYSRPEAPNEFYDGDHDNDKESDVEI
Sequence of Class 1 histone deacetylase (Homo sapiens) (O15379 whole entry, looked up): as the sequence (O15379 whole entry) above
Sequence of Class 1 histone deacetylase (Homo sapiens) (Q13547 whole entry, looked up): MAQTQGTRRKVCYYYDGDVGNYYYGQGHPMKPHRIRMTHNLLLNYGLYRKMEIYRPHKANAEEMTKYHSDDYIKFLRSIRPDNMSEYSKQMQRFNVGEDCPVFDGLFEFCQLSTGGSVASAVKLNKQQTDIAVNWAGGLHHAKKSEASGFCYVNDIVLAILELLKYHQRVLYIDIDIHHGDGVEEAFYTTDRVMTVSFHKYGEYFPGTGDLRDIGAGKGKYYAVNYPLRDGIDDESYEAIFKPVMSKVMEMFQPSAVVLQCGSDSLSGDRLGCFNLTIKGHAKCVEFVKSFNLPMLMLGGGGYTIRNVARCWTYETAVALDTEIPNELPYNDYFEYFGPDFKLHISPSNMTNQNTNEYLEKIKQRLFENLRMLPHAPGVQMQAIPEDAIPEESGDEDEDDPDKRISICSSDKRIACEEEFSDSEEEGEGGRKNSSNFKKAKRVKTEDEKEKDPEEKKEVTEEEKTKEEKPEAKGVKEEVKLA
Sequence of Class 1 histone deacetylase (Homo sapiens) (Q92769 whole entry, looked up): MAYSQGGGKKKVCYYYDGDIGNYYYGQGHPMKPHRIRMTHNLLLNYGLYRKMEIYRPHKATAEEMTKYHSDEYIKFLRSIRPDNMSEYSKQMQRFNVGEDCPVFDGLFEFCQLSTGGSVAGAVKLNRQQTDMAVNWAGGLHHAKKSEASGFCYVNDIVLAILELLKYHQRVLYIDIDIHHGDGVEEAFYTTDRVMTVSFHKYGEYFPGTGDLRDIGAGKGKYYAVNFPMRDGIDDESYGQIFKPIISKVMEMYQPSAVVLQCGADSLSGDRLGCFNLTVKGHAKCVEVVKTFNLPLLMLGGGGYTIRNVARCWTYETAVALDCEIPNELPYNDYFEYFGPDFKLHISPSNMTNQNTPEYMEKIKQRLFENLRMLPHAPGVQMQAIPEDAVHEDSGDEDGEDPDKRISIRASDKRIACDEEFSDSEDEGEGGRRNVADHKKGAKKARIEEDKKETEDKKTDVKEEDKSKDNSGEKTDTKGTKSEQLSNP
Sequence of Class 1 histone deacetylase (Homo sapiens) (Q9BY41 whole entry, looked up): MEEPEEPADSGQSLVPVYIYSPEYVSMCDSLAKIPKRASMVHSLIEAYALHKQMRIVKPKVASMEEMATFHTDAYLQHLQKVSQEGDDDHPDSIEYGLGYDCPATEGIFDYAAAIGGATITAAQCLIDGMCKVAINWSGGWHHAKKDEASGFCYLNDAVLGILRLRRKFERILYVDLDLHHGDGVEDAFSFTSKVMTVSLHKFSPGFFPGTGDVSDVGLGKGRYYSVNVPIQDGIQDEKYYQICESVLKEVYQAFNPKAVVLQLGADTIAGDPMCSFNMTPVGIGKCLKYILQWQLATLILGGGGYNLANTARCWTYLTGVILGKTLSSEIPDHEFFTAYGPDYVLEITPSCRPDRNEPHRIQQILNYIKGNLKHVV
Sequence of Histone deacetylase 1 (Q13547 whole entry): as the sequence (Q13547 whole entry, looked up) above

pIC50 [3]: 7.14
Kd [5]: Not Active
Kd [6]: Not Active
pIC50 [7]: 6.89
Kd [8]: Not Active
Kd [9]: Not Active
Drug uptake [10]: Active
Kd [12]: Not Active
inhibition [13]: Active
Drug uptake [14]: Active
pIC50 [15]: 7.28
pIC50 [17]: < 5.00
pIC50 [18]: 6.92
inhibition [21]: Active
pIC50 [22]: 7.21
pIC50 [24]: 7.24
pIC50 [26]: < 5.00
pIC50 [30]: < 5.00
inhibition [32]: Active
Compound: C=C1C(=O)O[C@@H]2C[C@@]3(C)CC[C@@H](OC(=O)[C@H](C)NC(=O)c4ccc(/C=C/C(=O)NO)cc4)C(=C)[C@@H]3C[C@H]12
Activity [1]: 70.7%
Activity [2]: Active
Activity [4]: 4.07%
Activity [11]: 2.99%
Activity [16]: Non-Toxic
Activity [19]: 1.59%
Activity [20]: Tde
Activity [23]: Active
Activity [25]: Non-Toxic
Activity [27]: Active
Activity [28]: inactive
Activity [29]: Non-Toxic
Activity [31]: Active

From ChEMBL document CHEMBL6071142, “Isoalantolactone/hydroxamic acid hybrids as potent dual STAT3/HDAC inhibitors and self-assembled nanoparticles for cancer therapy” (Eur J Med Chem, 2024)
